The values below come from BindingDB's records for doi:10.1021/jm00172a024 (Rorer Central Research, 1990).

Structures are written as SMILES.

For orientation: Ki means the equilibrium dissociation constant of an inhibitor or competing ligand from its target.

The test addresses Cysteinyl leukotriene receptor 1 (Cavia porcellus). Put plainly: In vitro binding affinity against Cysteinyl leukotriene D4 receptor from guinea pig lung membrane.

On to `CCCC(CCc1nnn[nH]1)Cc1ccc(OCc2ccc3ccccc3n2)cc1` (stereo unspecified), for which affinity was put at a Ki of 11 nM. This counts as double-digit nanomolar.
